Test results: patent US20130251743A1, “Fungal extracts and uses thereof” (CERMEDI OY, priority 2010, published 2013)

System: human retinal pigment epithelial cells (hRPE)
Assay: WST-1 cytotoxicity test of hRPE cells exposed to hydrogen peroxide-induced oxidative stress
Type: cell-based
Settings: ARPE-19 cells exposed to H2O2
Method: Human ARPE-19 retinal pigment epithelial cells (RPE) were obtained from American Type Culture Collection (USA). The cells were grown to confluency in a standard incubator in appropriate Dulbecco's MEM/Nut MIX F-12 medium (Gibco, UK). Oxidative stress was applied to the cells (1×10^4 cells/well) by using various concentrations of H2O2. Cytotoxicity was evaluated by two cytotoxicity tests, WST-1 test. WST-1 test reagent was purchased from Roche, Basel, Switzerland. WST-1 test is based on the cleavage of the tetrazolium salt WST-1 (4-*3-(4-iodophenyl)-2-(4-nitrophenyl)-2H-5-tetrazolio*-1,3-benzene disulfonate, slightly red) to formazan (dark red) by various mitochondrial dehydrogenase enzymes. The mean optical density values corresponding to the non-treated controls were taken as 100%. The results were expressed as percentages of the optical density of treated vs. untreated controls. Dose-response curves were drawn from the results expressed as mean±standard error of mean (SEM) by Graph Pad Prism software (GraphPad™, San Diego, US) using non-linear regression analysis. […] The statistical significance of the differences between the cultures exposed to H2O2 and tested extracts without or with serum was determined with the Student's two-tailed t-test (GraphPad Prism). […]

SMILES: COc1cc(C[C@@H](CO)[C@H](CO)Cc2ccc(O)c(OC)c2)ccc1O [secoisolariciresinol (SECO), secoisolariciresinol]
- protection of hRPE cells against oxidative damage (WST-1 test): did not protect hRPE cells from oxidative damage
